From PMC11237012, “Synthesis and preliminary evaluation of novel PET probes for GSK-3 imaging” (Scientific Reports, 2024)

Experiment: Ex vivo biodistribution
Assay type: in vivo, wild-type FVB/NJ mice
Description: To further understand the pharmacokinetics of [^18F]2, ex vivo biodistribution was performed with different groups of mice with and without co-administration of 2. Animals were sacrificed at 5 min, 10 min and 120 min post-injection of [^18F]2. Vital organs and tissues were collected and uptake of the [^18F]2 was measured as SUV after counting the radioactivity in each harvested tissue. […] Additionally, observed higher uptake of [^18F]2 in pancreas could potentially be extended to beta cell mass imaging as a separate study. […] Therefore, it would be valuable to evaluate PET [^18F]2 in pathological conditions to finally evaluate its selectivity, binding affinity, and retention in vivo in the presence and absence of self-blocking as a future study.
Uptake of PET probe [^18F]2 (1.40 ± 0.61 MBq) was assessed with and without co-administration of 2 in 10–13-week-old wild-type FVB/NJ mice (The Jackson Laboratory, Bar Harbor, ME) after tail vein injection followed by PET imaging at 5 min, 10 min, 15 min, 20 min, 25 min, 30 min, 40 min, 50 min, 60 min and 120 min post injection. Additionally, ex vivo biodistribution was performed at 5 min, 10 min and 120 min post tail vein injection. To prepare [^18F]2 formulation for injection, 0.76 ± 0.48 µg (2.01 ± 1.27 nmol) of [^18F]2 was formulated in 10% ethanol/ 90% isotonic saline. For the blocking experiment, 20.21 ± 1.63 µg (53.75 ± 4.33 nmol) of 2 in DMSO was added to [^18F]2 (Am of 87.27 ± 77.26 (n = 13) GBq/µmole, having 0.46 ± 0.31 µg or 1.23 ± 0.83 nmol of nonradioactive 2 in it) in the final formulation volume of ~ 100 µL. This study had 12 wild type FVB/NJ male mice with body weight 31.8 ± 2.7 g and 10 wild type FVB/NJ female mice with body weight 27.0 ± 3.6 g at the time of imaging. All the animals were anesthetized for tail vein injection and PET imaging using an induction dose of 3% isoflurane and a maintenance dose of 2–3% isoflurane, which was administered via isoflurane vaporizer. All anesthetized animals were kept warm during imaging using a heat supported imaging chamber. For ex vivo biodistribution studies, animals were sacrificed at 5 min, 10 min and 120 min post-injection by cervical dislocation and tissues were harvested for gamma counting. For PET imaging studies, each animal underwent a 60 min dynamic PET scan (Framing Sequence: 1 × 10 s, 4 × 15 s, 8 × 30 s, 5 × 60 s, 4 × 300 s, 3 × 600 s) immediately post injection followed by 10 min static PET scan at 120 min post-injection on small animal micro-PET/X-ray system, Genesys 4 (Sofie BioSystems, Dulles, VA, USA). The PET images were reconstructed using Genesys 4 imaging software installed on the imaging system. The obtained PET images were visualized and analyzed using image analysis software, “Amide's a medical image data examiner-AMIDE”[53]. PET images were normalized to the standardized uptake value (SUV) where; SUV=ConcentrationofdoseintissueμCi/g×Weightoftheanimal(g)/Injecteddose(μCi).

O=C(Nc1cnccc1-c1ccc([18F])cc1)c1ccnc(NC(=O)C2CC2)c1 [[^18F]2]
SUV, Average ± SD (Adipose, 5 min post-injection, [^18F]2 + 20 µg of 2): 0.33 ± 0.05
SUV, Average ± SD (Adipose, 5 min post-injection, [^18F]2 alone): 0.29 ± 0.09
SUV, Average ± SD (Adipose, 10 min post-injection, [^18F]2 + 20 µg of 2): 0.38 ± 0.05
SUV, Average ± SD (Adipose, 10 min post-injection, [^18F]2 alone): 0.24 ± 0.07
SUV, Average ± SD (Adipose, 120 min post-injection, [^18F]2 + 20 µg of 2): 0.25 ± 0.05
SUV, Average ± SD (Adipose, 120 min post-injection, [^18F]2 alone): 0.14 ± 0.04
SUV, Average ± SD (Bladder, 5 min post-injection, [^18F]2 + 20 µg of 2): 0.71 ± 0.09
SUV, Average ± SD (Bladder, 5 min post-injection, [^18F]2 alone): 0.40 ± 0.12
SUV, Average ± SD (Bladder, 10 min post-injection, [^18F]2 + 20 µg of 2): 0.84 ± 0.13
SUV, Average ± SD (Bladder, 10 min post-injection, [^18F]2 alone): 0.48 ± 0.08
SUV, Average ± SD (Bladder, 120 min post-injection, [^18F]2 + 20 µg of 2): 0.73 ± 0.54
SUV, Average ± SD (Bladder, 120 min post-injection, [^18F]2 alone): 1.58 ± 1.90
SUV, Average ± SD (Blood, 5 min post-injection, [^18F]2 + 20 µg of 2): 0.93 ± 0.14
SUV, Average ± SD (Blood, 5 min post-injection, [^18F]2 alone): 0.38 ± 0.18
SUV, Average ± SD (Blood, 10 min post-injection, [^18F]2 + 20 µg of 2): 0.79 ± 0.12
SUV, Average ± SD (Blood, 10 min post-injection, [^18F]2 alone): 0.34 ± 0.02
SUV, Average ± SD (Blood, 120 min post-injection, [^18F]2 + 20 µg of 2): 0.43 ± 0.07
SUV, Average ± SD (Blood, 120 min post-injection, [^18F]2 alone): 0.15 ± 0.07
SUV, Average ± SD (Bone, 5 min post-injection, [^18F]2 + 20 µg of 2): 0.48 ± 0.02
SUV, Average ± SD (Bone, 5 min post-injection, [^18F]2 alone): 0.30 ± 0.14
SUV, Average ± SD (Bone, 10 min post-injection, [^18F]2 + 20 µg of 2): 0.50 ± 0.03
SUV, Average ± SD (Bone, 10 min post-injection, [^18F]2 alone): 0.29 ± 0.04
SUV, Average ± SD (Bone, 120 min post-injection, [^18F]2 + 20 µg of 2): 1.22 ± 0.31
SUV, Average ± SD (Bone, 120 min post-injection, [^18F]2 alone): 1.08 ± 0.33
SUV, Average ± SD (CN (caudate nucleus), 5 min post-injection, [^18F]2 + 20 µg of 2): 0.65 ± 0.04
SUV, Average ± SD (CN (caudate nucleus), 5 min post-injection, [^18F]2 alone): 0.87 ± 0.48
SUV, Average ± SD (CN (caudate nucleus), 10 min post-injection, [^18F]2 + 20 µg of 2): 0.45 ± 0.05
SUV, Average ± SD (CN (caudate nucleus), 10 min post-injection, [^18F]2 alone): 0.34 ± 0.07
SUV, Average ± SD (CN (caudate nucleus), 120 min post-injection, [^18F]2 + 20 µg of 2): 0.19 ± 0.03
SUV, Average ± SD (CN (caudate nucleus), 120 min post-injection, [^18F]2 alone): 0.06 ± 0.02
SUV, Average ± SD (Heart, 5 min post-injection, [^18F]2 + 20 µg of 2): 1.38 ± 0.11
SUV, Average ± SD (Heart, 5 min post-injection, [^18F]2 alone): 0.69 ± 0.36
SUV, Average ± SD (Heart, 10 min post-injection, [^18F]2 + 20 µg of 2): 1.14 ± 0.16
SUV, Average ± SD (Heart, 10 min post-injection, [^18F]2 alone): 0.45 ± 0.02
SUV, Average ± SD (Heart, 120 min post-injection, [^18F]2 + 20 µg of 2): 0.48 ± 0.12
SUV, Average ± SD (Heart, 120 min post-injection, [^18F]2 alone): 0.16 ± 0.08
SUV, Average ± SD (Left kidney, 5 min post-injection, [^18F]2 + 20 µg of 2): 2.47 ± 0.30
SUV, Average ± SD (Left kidney, 5 min post-injection, [^18F]2 alone): 1.37 ± 0.69
SUV, Average ± SD (Left kidney, 10 min post-injection, [^18F]2 + 20 µg of 2): 2.27 ± 0.32
SUV, Average ± SD (Left kidney, 10 min post-injection, [^18F]2 alone): 1.01 ± 0.16
SUV, Average ± SD (Left kidney, 120 min post-injection, [^18F]2 + 20 µg of 2): 2.18 ± 0.51
SUV, Average ± SD (Left kidney, 120 min post-injection, [^18F]2 alone): 0.54 ± 0.06
SUV, Average ± SD (Lung, 5 min post-injection, [^18F]2 + 20 µg of 2): 1.17 ± 0.15
SUV, Average ± SD (Lung, 5 min post-injection, [^18F]2 alone): 0.65 ± 0.35
SUV, Average ± SD (Lung, 10 min post-injection, [^18F]2 + 20 µg of 2): 1.08 ± 0.15
SUV, Average ± SD (Lung, 10 min post-injection, [^18F]2 alone): 0.48 ± 0.03
SUV, Average ± SD (Lung, 120 min post-injection, [^18F]2 + 20 µg of 2): 0.52 ± 0.09
SUV, Average ± SD (Lung, 120 min post-injection, [^18F]2 alone): 0.18 ± 0.07
SUV, Average ± SD (Muscle, 5 min post-injection, [^18F]2 + 20 µg of 2): 0.90 ± 0.17
SUV, Average ± SD (Muscle, 5 min post-injection, [^18F]2 alone): 0.47 ± 0.23
SUV, Average ± SD (Muscle, 10 min post-injection, [^18F]2 + 20 µg of 2): 0.72 ± 0.09
SUV, Average ± SD (Muscle, 10 min post-injection, [^18F]2 alone): 0.43 ± 0.03
SUV, Average ± SD (Muscle, 120 min post-injection, [^18F]2 + 20 µg of 2): 0.32 ± 0.06
SUV, Average ± SD (Muscle, 120 min post-injection, [^18F]2 alone): 0.11 ± 0.04
SUV, Average ± SD (Pancreas, 5 min post-injection, [^18F]2 + 20 µg of 2): 1.83 ± 0.16
SUV, Average ± SD (Pancreas, 5 min post-injection, [^18F]2 alone): 1.27 ± 0.56
SUV, Average ± SD (Pancreas, 10 min post-injection, [^18F]2 + 20 µg of 2): 1.53 ± 0.15
SUV, Average ± SD (Pancreas, 10 min post-injection, [^18F]2 alone): 0.85 ± 0.23
SUV, Average ± SD (Pancreas, 120 min post-injection, [^18F]2 + 20 µg of 2): 0.57 ± 0.15
SUV, Average ± SD (Pancreas, 120 min post-injection, [^18F]2 alone): 0.22 ± 0.09
SUV, Average ± SD (Right kidney, 5 min post-injection, [^18F]2 + 20 µg of 2): 2.46 ± 0.18
SUV, Average ± SD (Right kidney, 5 min post-injection, [^18F]2 alone): 1.34 ± 0.69
SUV, Average ± SD (Right kidney, 10 min post-injection, [^18F]2 + 20 µg of 2): 2.30 ± 0.35
SUV, Average ± SD (Right kidney, 10 min post-injection, [^18F]2 alone): 0.97 ± 0.12
SUV, Average ± SD (Right kidney, 120 min post-injection, [^18F]2 + 20 µg of 2): 2.30 ± 0.81
SUV, Average ± SD (Right kidney, 120 min post-injection, [^18F]2 alone): 0.48 ± 0.15
SUV, Average ± SD (Skin, 5 min post-injection, [^18F]2 + 20 µg of 2): 0.66 ± 0.16
SUV, Average ± SD (Skin, 5 min post-injection, [^18F]2 alone): 0.46 ± 0.17
SUV, Average ± SD (Skin, 10 min post-injection, [^18F]2 + 20 µg of 2): 0.66 ± 0.10
SUV, Average ± SD (Skin, 10 min post-injection, [^18F]2 alone): 0.52 ± 0.16
SUV, Average ± SD (Skin, 120 min post-injection, [^18F]2 + 20 µg of 2): 0.71 ± 0.66
SUV, Average ± SD (Skin, 120 min post-injection, [^18F]2 alone): 0.10 ± 0.04
SUV, Average ± SD (Spleen, 5 min post-injection, [^18F]2 + 20 µg of 2): 1.00 ± 0.05
SUV, Average ± SD (Spleen, 5 min post-injection, [^18F]2 alone): 0.74 ± 0.27
SUV, Average ± SD (Spleen, 10 min post-injection, [^18F]2 + 20 µg of 2): 1.14 ± 0.50
SUV, Average ± SD (Spleen, 10 min post-injection, [^18F]2 alone): 0.55 ± 0.20
SUV, Average ± SD (Spleen, 120 min post-injection, [^18F]2 + 20 µg of 2): 0.44 ± 0.11
SUV, Average ± SD (Spleen, 120 min post-injection, [^18F]2 alone): 0.15 ± 0.07
SUV, Average ± SD (Stomach, 5 min post-injection, [^18F]2 + 20 µg of 2): 0.86 ± 0.32
SUV, Average ± SD (Stomach, 5 min post-injection, [^18F]2 alone): 0.80 ± 0.24
SUV, Average ± SD (Stomach, 10 min post-injection, [^18F]2 + 20 µg of 2): 0.97 ± 0.63
SUV, Average ± SD (Stomach, 10 min post-injection, [^18F]2 alone): 0.53 ± 0.09
SUV, Average ± SD (Stomach, 120 min post-injection, [^18F]2 + 20 µg of 2): 1.28 ± 1.08
SUV, Average ± SD (Stomach, 120 min post-injection, [^18F]2 alone): 0.68 ± 0.41
SUV, Average ± SD (Urine, 5 min post-injection, [^18F]2 + 20 µg of 2): 0.20 ± 0.29
SUV, Average ± SD (Urine, 5 min post-injection, [^18F]2 alone): 0.10 ± 0.10
SUV, Average ± SD (Urine, 10 min post-injection, [^18F]2 + 20 µg of 2): 0.85 ± 0.79
SUV, Average ± SD (Urine, 10 min post-injection, [^18F]2 alone): 1.78 ± 1.21
SUV, Average ± SD (Urine, 120 min post-injection, [^18F]2 + 20 µg of 2): 3.20 ± 2.32
SUV, Average ± SD (Urine, 120 min post-injection, [^18F]2 alone): 20.55 ± 8.76
SUV, Average ± SD (liver, 5 min post-injection, [^18F]2 + 20 µg of 2): 8.37 ± 0.36
SUV, Average ± SD (liver, 5 min post-injection, [^18F]2 alone): 11.85 ± 0.33
SUV, Average ± SD (liver, 10 min post-injection, [^18F]2 + 20 µg of 2): 7.85 ± 0.41
SUV, Average ± SD (liver, 10 min post-injection, [^18F]2 alone): 14.43 ± 1.48
SUV, Average ± SD (liver, 120 min post-injection, [^18F]2 + 20 µg of 2): 4.00 ± 0.22
SUV, Average ± SD (liver, 120 min post-injection, [^18F]2 alone): 3.08 ± 1.44
